# According to patent US12708640B2, “Synergistic nutritional compositions for treating vestibular associated neurodegenerative diseases” (CELAGENEX RESEARCH (INDIA) PVT. LTD., priority 2021, dated 2026):
# Columns and labels:
# Format in all cases: in vivo, Albino Wistar rat
# [1] = tested on: sodium arsanilate induced vestibular dysfunction (Vertigo disorder) in wistar rats; experiment: Open field test
# Text: (§1) “Evaluation of test substance on sodium arsanilate induced vestibular dysfunction (Vertigo disorder) in wistar rats”.
# (§2) Vestibular dysfunction was induced in rats by intratympanic injection of sodium arsanilate an ototoxic compound. Sodium arsanilate is an arsenic derivative and intratympanic injection result was vestibular nerve degeneration in brain stem with concomitant loss of labyrinthine righting and reduced postural support with exaggerated head dorsiflexion.
# (§3) All the animals were acclimatized for at least 5 days under controlled environmental condition. Total 42 animals were divided into seven groups consisting of 6 animals per group. Normal control (G1) group receiving vehicle, disease control (G2) group receiving sodium arsanilate injection only, standard group (G3) receiving reference standard (vertin) and treatment groups G4, G5, G6 & G7 were treated with the test substances. All the groups (except normal control group) were induced with sodium arsanilate via intratymphanic injection. All the treatment groups were administered daily for 7 consecutive days.
# The open-field was circular, with a diameter of 90 cm, and enclosed by a wall 30 cm high. The floor and wall of the open-field was black and the floor was divided into 25 equal area sections by thin white lines. The floor was covered with a transparent plastic coating. The open-field apparatus was located inside a large wooden frame which surrounded on all sides by black curtains. The field was illuminated by two 60-W fluorescent lights located 100 cm above the floor.
# At the start of each session the rats were placed in one of the peripheral sections of the open-field and the animal's behavior was monitored by an observer for 10 consecutive minutes. […] At the end of each session the rat was returned to its home cage and the floor of the open-field was cleaned and sponged over with a weak vinegar solution to remove any residual odors.
# [2] = Rat feed consumption in the sodium arsanilate vestibular dysfunction study; details: rats, group value
# Text: as §1
# (§4) • Test Species: Rat • Strain: Albino Wistar • Sex: Male/Female • Age: 6-8 Weeks • Body Weight: 180-200 g • Source: In house breed • Total No. of Animals: 42 Animals (7 groups of 6 animals each) • Feed: Normal chow diet (Purina lab diet 5L79 Rat and Mouse 18%) (PMI Nutrition International) Environmental Conditions:
# as §3
# The feed consumption was calculated and reported on a daily basis throughout the study period.
# [3] = tested on: sodium arsanilate induced vestibular dysfunction (Vertigo disorder) in wistar rats; experiment: Air righting reflex (air reflecting index)
# Text: as §1, §2, §3
# A sponge was spread on a flat surface and the animals were placed in a supine position in the air 50 cm away above the sponge, following which the animal was dropped horizontally.
# Four-legged smooth landing on the ground was considered as positive (normal animal), whereas the body or other regions landing first was considered vestibular dysfunction animals. The positive landing rate (%) of each rat in each group was recorded.
# [4] = Rat body weight in the sodium arsanilate vestibular dysfunction study; details: rats, group value
# Text: as §1, §4, §3
# Individual body weights were recorded at receipt, on the day of randomization, on the first day of treatment before dosing and weekly once thereafter throughout the treatment period. The body weight changes for all the animals were calculated and reported along with the body weight data.
# [5] = tested on: sodium arsanilate induced vestibular dysfunction (Vertigo disorder) in wistar rats; experiment: Contact righting reflex
# Text: as §1, §2, §3
# The rats were placed in a syringe core tube in a supine position, following which the recovery time for position correction to be recorded. Normal rats turned over their body position in a few seconds.
# [6] = open field test, wrt. disease control G2
structure (smiles),measurement,setting,value
"O=c1ccn([C@@H]2O[C@H](COP(=O)(O)O)[C@@H](O)[C@H]2O)c(=O)[nH]1 [Group 5, Uridine monophosphate]",Ambulation Score [the number of open-field sections entered by the rat],[1]; animal 1,200
same,Defecation [the number of fecal boli deposited in the open-field],[1]; animal 1,4
same,Grooming [the number of grooming bouts exhibited by the rat],[1]; animal 1,2
same,Rearing Responses [the number of times the animal raised both forefeet off the floor and extended its body],[1]; animal 1,3
same,Ambulation Score [the number of open-field sections entered by the rat],[1]; animal 2,180
same,Defecation [the number of fecal boli deposited in the open-field],[1]; animal 2,2
same,Grooming [the number of grooming bouts exhibited by the rat],[1]; animal 2,4
same,Rearing Responses [the number of times the animal raised both forefeet off the floor and extended its body],[1]; animal 2,4
same,Ambulation Score [the number of open-field sections entered by the rat],[1]; animal 3,190
same,Defecation [the number of fecal boli deposited in the open-field],[1]; animal 3,3
same,Grooming [the number of grooming bouts exhibited by the rat],[1]; animal 3,3
same,Rearing Responses [the number of times the animal raised both forefeet off the floor and extended its body],[1]; animal 3,3
same,Ambulation Score [the number of open-field sections entered by the rat],[1]; animal 4,160
same,Defecation [the number of fecal boli deposited in the open-field],[1]; animal 4,4
same,Grooming [the number of grooming bouts exhibited by the rat],[1]; animal 4,3
same,Rearing Responses [the number of times the animal raised both forefeet off the floor and extended its body],[1]; animal 4,4
same,Ambulation Score [the number of open-field sections entered by the rat],[1]; animal 5,200
same,Defecation [the number of fecal boli deposited in the open-field],[1]; animal 5,3
same,Grooming [the number of grooming bouts exhibited by the rat],[1]; animal 5,4
same,Rearing Responses [the number of times the animal raised both forefeet off the floor and extended its body],[1]; animal 5,3
same,Ambulation Score [the number of open-field sections entered by the rat],[1]; animal 6,190
same,Defecation [the number of fecal boli deposited in the open-field],[1]; animal 6,4
same,Grooming [the number of grooming bouts exhibited by the rat],[1]; animal 6,4
same,Rearing Responses [the number of times the animal raised both forefeet off the floor and extended its body],[1]; animal 6,4
same,"Ambulation Score [the number of open-field sections entered by the rat], Average",[1]; group average of 6 animals,186.67
same,"Defecation [the number of fecal boli deposited in the open-field], Average",[1]; group average of 6 animals,3.33
same,"Grooming [the number of grooming bouts exhibited by the rat], Average",[1]; group average of 6 animals,3.33
same,"Rearing Responses [the number of times the animal raised both forefeet off the floor and extended its body], Average",[1]; group average of 6 animals,3.50
same,% Improvement in Ambulation score wrt. G2,[1]; [6],25.83%
same,% Improvement in Defecation wrt. G2,[1]; [6],23.08%
same,% Improvement in Grooming wrt. G2,[1]; [6],57.45%
same,% Improvement in Rearing Responses wrt. G2,[1]; [6],32.81%
same,"Feed Consumption, 0 day",[2]; 0 day,15.50 gm
same,"Feed Consumption, 7th day",[2]; 7th day,16.67 gm
same,Air Righting Reflex (% successfully righted within 5 s),[3]; animal 1,40%
same,"Air Righting Reflex, Successful out of 5","[3]; animal 1, end of 7-day treatment",2
same,Air Righting Reflex (% successfully righted within 5 s),[3]; animal 2,40%
same,"Air Righting Reflex, Successful out of 5","[3]; animal 2, end of 7-day treatment",2
same,Air Righting Reflex (% successfully righted within 5 s),[3]; animal 3,20%
same,"Air Righting Reflex, Successful out of 5","[3]; animal 3, end of 7-day treatment",1
same,Air Righting Reflex (% successfully righted within 5 s),[3]; animal 4,40%
same,"Air Righting Reflex, Successful out of 5","[3]; animal 4, end of 7-day treatment",2
same,Air Righting Reflex (% successfully righted within 5 s),[3]; animal 5,20%
same,"Air Righting Reflex, Successful out of 5","[3]; animal 5, end of 7-day treatment",1
same,Air Righting Reflex (% successfully righted within 5 s),[3]; animal 6,40%
same,"Air Righting Reflex, Successful out of 5","[3]; animal 6, end of 7-day treatment",2
same,"Air Righting Reflex (% of Rats that successfully righted themselves within 5 s), Average",[3]; group average of 6 animals,33.33%
same,"Body Weight, End of the treatment",[4]; after 7 days daily treatment,190.08 gm
same,"Body Weight, Initial",[4]; initial,189.02 gm
same,Contact righting reflex (time),"[5]; animal 1, recovery time for position correction",30 s
same,Contact righting reflex (time),"[5]; animal 2, recovery time for position correction",29 s
same,Contact righting reflex (time),"[5]; animal 3, recovery time for position correction",28 s
same,Contact righting reflex (time),"[5]; animal 4, recovery time for position correction",27 s
same,Contact righting reflex (time),"[5]; animal 5, recovery time for position correction",30 s
same,Contact righting reflex (time),"[5]; animal 6, recovery time for position correction",26 s
same,"Contact righting reflex (time), Average",[5]; group average of 6 animals,28.33 s
same,"contact righting reflex, improvement (wrt. the Disease Control)",[5]; wrt. the Disease Control,≤ 30%
